Measurements from PubChem BioAssay (NCI).
Where “and” joins values, the source holds several entries; their conditions need not be identical. Identical values can stand only once.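 These data come from cells grown in 96-well plates and exposed to compound for 48 hours at five concentrations. GI50 = concentration required for 50% inhibition of growth. Definition used: TGI = concentration required for complete inhibition of growth.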

Experiments:
Assay in all cases: NCI anticancer screen, dose series, 48 h
DU-145 prostate = tested on: DU-145 prostate
SNB-75 CNS = tested on: SNB-75 CNS
SNB-19 CNS = tested on: SNB-19 CNS
SK-MEL-5 melanoma = tested on: SK-MEL-5 melanoma
CCRF-CEM leukemia = tested on: CCRF-CEM leukemia
KM12 colon = tested on: KM12 colon
SF-268 CNS = tested on: SF-268 CNS
SK-MEL-28 melanoma = tested on: SK-MEL-28 melanoma
MOLT-4 leukemia = tested on: MOLT-4 leukemia
IGROV1 ovarian = tested on: IGROV1 ovarian

SMILES	GI50 (DU-145 prostate)	TGI (DU-145 prostate)	GI50 (SNB-75 CNS)	TGI (SNB-75 CNS)	GI50 (SNB-19 CNS)	TGI (SNB-19 CNS)	GI50 (SK-MEL-5 melanoma)	TGI (SK-MEL-5 melanoma)	GI50 (CCRF-CEM leukemia)	TGI (CCRF-CEM leukemia)	GI50 (KM12 colon)	TGI (KM12 colon)	GI50 (SF-268 CNS)	TGI (SF-268 CNS)	GI50 (SK-MEL-28 melanoma)	TGI (SK-MEL-28 melanoma)	GI50 (MOLT-4 leukemia)	TGI (MOLT-4 leukemia)	GI50 (IGROV1 ovarian)	TGI (IGROV1 ovarian)
N#Cc1ccc(OC(=O)Nc2ccc(Cl)c(Cl)c2)cc1	4.13 µM	> 100 µM	2.78 µM	20.6 µM	3.1 µM	> 100 µM	6.03 µM	19.4 µM	3.08 µM	16.1 µM	3.27 µM	12.8 µM	5.27 µM	> 100 µM	5.53 µM	> 100 µM	3.71 µM	27.8 µM	4.04 µM	> 100 µM
CCCCCc1ccc(S(=O)(=O)Nc2cc(-c3csc(NC(C)=O)n3)ccc2N2CCN(C)CC2)cc1	5.16 µM	9.8 µM	3.67 µM	7.98 µM	5.49 µM	10.4 µM	5.28 µM	9.79 µM	4.82 µM	20.3 µM	5.65 µM	11 µM	5.52 µM	11.6 µM	3.46 µM	7.49 µM	2.43 µM	8.33 µM	4.67 µM	9.46 µM
CC1C(=O)OC2CC[N+]3([O-])CC=C(COC(=O)C(C)(O)C1(C)O)C23 (configuration not stated)	–	> 100 µM	–	> 100 µM	–	> 100 µM	–	> 100 µM	–	> 100 µM	–	> 100 µM	–	> 100 µM	–	> 100 µM	–	> 100 µM	–	> 100 µM
COC(C(=O)[C@@H](O)[C@@H](C)O)[C@@H]1Cc2cc3cc(O[C@H]4C[C@@H](O[C@H]5C[C@@H](O)[C@H](O)C(C)O5)[C@H](O)C(C)O4)c(C)c(O)c3c(O)c2C(=O)[C@H]1O[C@H]1C[C@@H](O[C@H]2C[C@@H](O[C@H]3C[C@@H](O)[C@H](OC)C(C)O3)[C@@H](O)C(C)O2)[C@H](O)C(C)O1 (some centres not stated)	0.0188 µM	> 33.3 µM	–	0.23 µM	–	> 33.3 µM	0.00955 µM	0.0444 µM	0.0425 µM	> 13.1 µM	–	> 33.3 µM	0.0307 µM	> 33.3 µM	0.00946 µM	0.0647 µM	0.0231 µM	0.219 µM	0.0239 µM	> 33.3 µM
CC1=CC(=O)C(C(O)(C(F)(F)F)C(F)(F)F)C(C)(C)C1 (configuration not stated)	–	> 10 µM	–	> 10 µM	–	> 10 µM	–	> 10 µM	–	> 10 µM	–	> 10 µM	–	> 10 µM	–	> 10 µM	–	> 10 µM	–	> 10 µM
O=c1oc2ccc(Br)cc2c(=O)n1-c1ccc(F)cc1F	3.82 µM	27.7 µM	1.02 µM	3.98 µM	2.3 µM	> 100 µM	1.38 µM	2.82 µM	3.91 µM	> 100 µM	2.75 µM	8.49 µM	2.62 µM	21.8 µM	1.04 µM	5.8 µM	3.12 µM	> 100 µM	1.94 µM	24.8 µM
CCCCCCCCCCN1CCC(N2CCCCC2)CC1	9.64 µM	21.9 µM	2.06 µM	6.12 µM	3.95 µM	14.5 µM	1.54 µM	2.87 µM	2.08 µM	9.48 µM	1.82 µM	3.75 µM	4.1 µM	17 µM	1.78 µM	3.41 µM	2.09 µM	6.65 µM	1.66 µM	4.52 µM
Nc1ccccc1SC1CC(=O)N(c2ccc(Cl)c(Cl)c2)C1=O (configuration not stated)	27.5 µM	> 100 µM	13.3 µM	34.4 µM	31.6 µM	> 100 µM	21.9 µM	> 100 µM	40.6 µM	> 100 µM	16.2 µM	> 100 µM	29.7 µM	> 100 µM	45.4 µM	> 100 µM	7.7 µM	> 100 µM	31 µM	> 100 µM
Cc1ccc(S(=O)(=O)NC(=O)NC2=NC(C)(C)N(c3ccc(Cl)c(Cl)c3)C(N)=N2)cc1	–	> 100 µM	–	> 100 µM	–	> 100 µM	–	> 100 µM	–	> 100 µM	–	> 100 µM	–	> 100 µM	–	> 100 µM	–	> 100 µM	–	> 100 µM
O=[N+]([O-])c1ccc(CSCc2ccc(Cl)cc2)cc1	–	> 100 µM	–	> 100 µM	–	> 100 µM	–	> 100 µM	–	38.7 µM	–	> 100 µM	–	> 100 µM	–	> 100 µM	–	> 100 µM	–	> 100 µM
Cc1nn(C(=O)c2ccc(Cl)cc2)c2c1C(c1ccc(O)cc1)SC(N)=N2 (configuration not stated)	–	> 10 µM	–	> 10 µM	–	> 10 µM	–	> 10 µM	–	> 10 µM	–	> 10 µM	–	> 10 µM	–	> 10 µM	–	> 10 µM	–	> 10 µM
COCOc1ccc(C2(O)Oc3cc(OCOC)ccc3C2C)c(O)c1 (configuration not stated)	–	25.8 µM	–	30.4 µM	–	29.4 µM	–	23 µM	–	53.7 µM	–	31.7 µM	–	30 µM	–	31 µM	–	60.8 µM	–	31.6 µM
CCOC(CN(C)C(=S)Nc1cccc2ccccc12)OCC	–	> 10 µM	–	> 10 µM	–	> 10 µM	–	> 10 µM	–	> 10 µM	–	> 10 µM	–	> 10 µM	–	> 10 µM	–	> 10 µM	–	> 10 µM
CC/C=C/C/C=C/C/C=C/C/C=C/C/C=C/C/C=C/CCC(=O)Nc1ccn([C@@H]2O[C@H](CO)[C@@H](O)C2(F)F)c(=O)n1	0.043 µM	24.9 µM	0.863 µM	> 50.1 µM	0.0278 µM	26.6 µM	0.348 µM	17.8 µM	0.0537 µM	15.1 µM	1.42 µM	39.8 µM	0.0631 µM	26.3 µM	11.5 µM	25.8 µM	0.0802 µM	3.55 µM	4.07 µM	30.7 µM
CCCCCCCCCCCCOC1C(C(CC(=O)NCCN2CCCC2)NS(=O)(=O)c2cc(Cl)cc(Cl)c2)OC2OC(C)(C)OC21 (configuration not stated)	1.86 µM and 1.79 µM	3.45 µM and 3.23 µM	1.9 µM and 1.42 µM	3.56 µM and 2.86 µM	2.2 µM and 1.37 µM	4.36 µM and 2.81 µM	1.81 µM	3.27 µM	0.00586 µM	0.0349 µM	1.81 µM	3.45 µM	1.95 µM and 1.97 µM	3.96 µM and 3.84 µM	1.94 µM and 1.59 µM	3.55 µM and 3.1 µM	2.03 µM	4.33 µM	1.95 µM	3.6 µM
C[C@H]1CCC/C=C/[C@@H]2C[C@H](O)C[C@H]2[C@H](O)[C@@H](SCC(O)CO)CC(=O)O1 (some centres not stated)	17.8 µM	39.2 µM	6.77 µM	> 100 µM	27.1 µM	70.9 µM	6.3 µM	19.5 µM	34.1 µM	> 100 µM	3.81 µM	20 µM	10.9 µM	> 100 µM	13.3 µM	> 100 µM	27.1 µM	84.3 µM	37.2 µM	> 100 µM
O=C(Nc1ccc(Cl)c(Cl)c1)Nc1ccccc1O	9.75 µM	31.1 µM	13.7 µM	50.5 µM	9.92 µM	44.3 µM	7.71 µM	20.5 µM	3.35 µM	68.7 µM	3.35 µM	13.7 µM	9.59 µM	27.4 µM	12.5 µM	27.3 µM	3.15 µM	49.1 µM	6.48 µM	29.3 µM
Cc1cc(C)n(-c2nnc3n2N=C(c2ccc(-c4ccccc4)cc2)CS3)n1	3.82 µM	> 100 µM	3.24 µM	54.8 µM	3.98 µM	> 100 µM	2.46 µM	5.88 µM	3.12 µM	> 100 µM	3.49 µM	> 100 µM	3.96 µM	> 100 µM	3.33 µM	> 100 µM	3.66 µM	> 100 µM	4.81 µM	> 100 µM
Nc1ccc2nc3n(c2c1)C(=O)c1ccccc1-3	–	> 100 µM	–	> 100 µM	–	> 100 µM	–	> 100 µM	–	> 100 µM	–	> 100 µM	–	> 100 µM	–	> 100 µM	–	> 100 µM	–	> 100 µM
O=C(OCc1ccc2c(Cl)cc(Cl)c(O)c2n1)N1CCN(C(=O)c2cc3cc(F)ccc3[nH]2)CC1	1.94 µM	18.6 µM	2.85 µM	> 100 µM	4.13 µM	> 100 µM	1.11 µM	3.9 µM	0.876 µM	> 100 µM	0.58 µM	> 41.3 µM	1.56 µM	> 100 µM	87 µM	> 100 µM	1.02 µM	> 100 µM	1.99 µM	> 100 µM
C=CCN1CC2CON(C(=O)C(OC)(c3ccccc3)C(F)(F)F)C2C1C(C)C (configuration not stated)	54 µg/mL	–	38.4 µg/mL	–	54.5 µg/mL	–	–	–	15.2 µg/mL	62 µg/mL	36.2 µg/mL	–	70.5 µg/mL	–	52.9 µg/mL	–	15 µg/mL	46.6 µg/mL	56.9 µg/mL	–
CCN(CC)CCNC(=O)c1ccc(C)c(OCc2ccccc2)c1[N+](=O)[O-]	–	> 100 µM	–	67.9 µM	–	> 100 µM	–	30.5 µM	–	81.4 µM	–	> 81.1 µM	–	> 100 µM	–	34.2 µM	–	77.8 µM	–	> 100 µM
COc1ccc2c(Oc3ccc(NC(=O)c4c(C)n(CC(C)(C)O)n(-c5ccccc5)c4=O)nc3)ccnc2c1	12.1 µM	> 100 µM	5.53 µM	71.1 µM	46.4 µM	> 100 µM	11.5 µM	> 68.1 µM	18.2 µM	> 100 µM	2.23 µM	> 100 µM	16.8 µM	> 100 µM	22.3 µM	> 100 µM	9.07 µM	> 100 µM	12.3 µM	> 100 µM
O=C(N/N=C/c1c(Cl)cccc1Cl)c1ccc(C(F)(F)F)nc1Nc1cccc(C(F)(F)F)c1	1.79 µM	> 32.8 µM	2.46 µM	54.6 µM	1.55 µM	> 100 µM	0.829 µM	2.84 µM	0.34 µM	8.98 µM	1.1 µM	> 30 µM	1.22 µM	> 29.3 µM	1.82 µM	> 37.5 µM	0.394 µM	7.7 µM	1.01 µM	13.9 µM
Cn1c(=O)c2c(ncn2CC(=O)Nc2ccc(-c3ccccc3)nn2)n(C)c1=O	> 100 µM	> 100 µM	> 100 µM	> 100 µM	> 100 µM	> 100 µM	62.6 µM	> 100 µM	> 100 µM	> 100 µM	> 100 µM	> 100 µM	> 100 µM	> 100 µM	> 100 µM	> 100 µM	> 100 µM	> 100 µM	> 100 µM	> 100 µM
O=C(O)C12CC3(C(=O)O)CC(C(=O)O)(CC(C(=O)O)(C1)C3=O)C2=O	–	> 100 µM	–	> 100 µM	–	> 100 µM	–	> 100 µM	–	> 100 µM	–	> 100 µM	–	> 100 µM	–	> 100 µM	–	> 100 µM	–	> 100 µM
CN1CCN(c2ccc(Nc3ncc4cc(C#N)c(=O)n(C5CCCC5)c4n3)cc2)CC1	2.13 µM	> 100 µM	0.336 µM	3.8 µM	1.77 µM	18.7 µM	3.17 µM	> 100 µM	0.597 µM	> 20.9 µM	1.52 µM	> 100 µM	1.48 µM	4.95 µM	3.54 µM	> 100 µM	0.3 µM	3.17 µM	0.605 µM	> 23.3 µM
O=c1[nH]c(=O)n([C@H]2CCCO2)cc1F	910 µM	> 5000 µM	> 5000 µM	826 µM and > 5000 µM	–	> 5000 µM	429 µM	> 2600 µM	527 µM	> 5000 µM	1320 µM	> 5000 µM	3000 µM	> 5000 µM	1040 µM	> 5000 µM	> 3500 µM	> 5000 µM	2270 µM	> 5000 µM
Nc1ccc2[nH]cc(CCC(=O)O)c2c1	–	> 100 µM	–	> 100 µM	–	> 100 µM	–	> 100 µM	–	32.9 µM	–	> 100 µM	–	> 100 µM	–	> 100 µM	–	> 100 µM	–	> 100 µM
